{"source": "patent US20250388553A1", "about": "(Incyte Corporation, priority 2018, published 2025)", "key": {"[1]": {"biological_target": "PI3Kγ (p110γ) Recombinant Human Protein (Homo sapiens (Human), UniProt P48736)", "sequence (P48736 whole entry)": "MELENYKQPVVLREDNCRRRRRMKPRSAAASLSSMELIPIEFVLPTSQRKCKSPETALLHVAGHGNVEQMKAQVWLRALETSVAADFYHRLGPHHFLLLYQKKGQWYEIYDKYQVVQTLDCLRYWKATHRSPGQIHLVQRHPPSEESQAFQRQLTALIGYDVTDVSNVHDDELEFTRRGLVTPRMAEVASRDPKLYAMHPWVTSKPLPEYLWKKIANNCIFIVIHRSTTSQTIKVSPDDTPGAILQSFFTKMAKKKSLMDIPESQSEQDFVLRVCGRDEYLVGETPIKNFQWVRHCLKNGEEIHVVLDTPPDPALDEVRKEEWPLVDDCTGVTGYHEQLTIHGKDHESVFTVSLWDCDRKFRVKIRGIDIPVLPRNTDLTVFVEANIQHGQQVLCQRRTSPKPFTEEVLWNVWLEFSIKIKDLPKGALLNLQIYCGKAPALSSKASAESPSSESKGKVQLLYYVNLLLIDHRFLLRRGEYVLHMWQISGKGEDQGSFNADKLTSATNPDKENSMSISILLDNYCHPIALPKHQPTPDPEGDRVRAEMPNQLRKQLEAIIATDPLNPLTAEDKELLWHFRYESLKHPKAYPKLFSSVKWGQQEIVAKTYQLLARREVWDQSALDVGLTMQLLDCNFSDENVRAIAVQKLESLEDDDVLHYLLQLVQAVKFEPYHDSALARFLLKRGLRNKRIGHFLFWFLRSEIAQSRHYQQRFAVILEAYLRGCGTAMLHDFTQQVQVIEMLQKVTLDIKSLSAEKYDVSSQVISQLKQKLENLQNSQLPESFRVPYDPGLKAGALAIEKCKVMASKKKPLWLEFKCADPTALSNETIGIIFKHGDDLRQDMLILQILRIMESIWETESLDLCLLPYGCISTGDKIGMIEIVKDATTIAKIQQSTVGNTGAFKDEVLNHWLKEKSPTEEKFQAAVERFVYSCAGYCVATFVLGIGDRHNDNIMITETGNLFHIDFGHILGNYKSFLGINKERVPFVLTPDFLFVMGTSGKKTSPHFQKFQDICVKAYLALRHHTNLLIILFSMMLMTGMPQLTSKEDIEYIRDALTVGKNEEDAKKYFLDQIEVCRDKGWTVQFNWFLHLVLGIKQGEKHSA", "experiment": "PI3K-γ scintillation proximity assay", "type": "biochemical", "conditions": "scintillation proximity assay, recombinant human p110γ", "from_the_text": "Example B. PI3K-γ Scintillation Proximity Assay\n(§1) Materials: [γ-^33P]ATP (10 mCi/mL) and Wheat Germ Agglutinin (WGA) YSi SPA Scintillation Beads was purchased from Perkin Elmer (Waltham, MA). Lipid kinase substrate, D-myo-Phosphatidylinositol 4,5-bisphosphate (PtdIns(4,5)P2)D (+)-sn-1,2-di-O-octanoylglyceryl, 3-O-phospho linked (PIP2), CAS 204858-53-7, was purchased from Echelon Biosciences (Salt Lake City, UT). PI3Kγ (p110γ) Recombinant Human Protein was purchased from Life technology (Grand Island, NY). ATP, MgCl2, DTT, EDTA, MOPS and CHAPS were purchased from Sigma Aldrich (St. Louis, MO).\n(§2) The kinase reaction was conducted in polystyrene 384-well Greiner Bio-one white plate from Thermo Fisher Scientific in a final volume of 25 L. Inhibitors were first diluted serially in DMSO and added to the plate wells before the addition of other reaction components. The final concentration of DMSO in the assay was 2%. The PI3Kγ assay was carried out at room temperature in 20 mM MOPS, pH 6.7, 10 mM MgCl2, 5 mM DTT and CHAPS 0.03%. Reactions were initiated by the addition of ATP, the final reaction mixture consisted of 20 µM […], 0.5 μCi [γ-^33P]ATP, 13 nM PI3Kγ. Reactions were incubated for 120 min and terminated by the addition of 40 μL SPA beads suspended in quench buffer: 163 mM potassium phosphate pH 7.8, 20% glycerol, 25 mM EDTA. The final concentration of SPA beads is 1.0 mg/mL. After the plate sealing, plates were shaken overnight at room temperature and centrifuged at 1500 rpm for 10 min, the radioactivity of the product was determined by scintillation counting on Topcount (Perkin-Elmer). IC50 determination was performed by fitting the curve of percent of the solvent control activity versus the log of the inhibitor concentration using the GraphPad Prism 6.0 software.\n(§3) The compounds of the Examples were tested in the assays described in Examples A, B and C and found to have the IC50s are shown in Tables A1, A2, A3 and A4."}, "[2]": {"biological_target": "PI3Kδ (p1106/p85a) Recombinant Human Protein (Homo sapiens (Human), UniProt O00329)", "sequence (O00329 whole entry)": "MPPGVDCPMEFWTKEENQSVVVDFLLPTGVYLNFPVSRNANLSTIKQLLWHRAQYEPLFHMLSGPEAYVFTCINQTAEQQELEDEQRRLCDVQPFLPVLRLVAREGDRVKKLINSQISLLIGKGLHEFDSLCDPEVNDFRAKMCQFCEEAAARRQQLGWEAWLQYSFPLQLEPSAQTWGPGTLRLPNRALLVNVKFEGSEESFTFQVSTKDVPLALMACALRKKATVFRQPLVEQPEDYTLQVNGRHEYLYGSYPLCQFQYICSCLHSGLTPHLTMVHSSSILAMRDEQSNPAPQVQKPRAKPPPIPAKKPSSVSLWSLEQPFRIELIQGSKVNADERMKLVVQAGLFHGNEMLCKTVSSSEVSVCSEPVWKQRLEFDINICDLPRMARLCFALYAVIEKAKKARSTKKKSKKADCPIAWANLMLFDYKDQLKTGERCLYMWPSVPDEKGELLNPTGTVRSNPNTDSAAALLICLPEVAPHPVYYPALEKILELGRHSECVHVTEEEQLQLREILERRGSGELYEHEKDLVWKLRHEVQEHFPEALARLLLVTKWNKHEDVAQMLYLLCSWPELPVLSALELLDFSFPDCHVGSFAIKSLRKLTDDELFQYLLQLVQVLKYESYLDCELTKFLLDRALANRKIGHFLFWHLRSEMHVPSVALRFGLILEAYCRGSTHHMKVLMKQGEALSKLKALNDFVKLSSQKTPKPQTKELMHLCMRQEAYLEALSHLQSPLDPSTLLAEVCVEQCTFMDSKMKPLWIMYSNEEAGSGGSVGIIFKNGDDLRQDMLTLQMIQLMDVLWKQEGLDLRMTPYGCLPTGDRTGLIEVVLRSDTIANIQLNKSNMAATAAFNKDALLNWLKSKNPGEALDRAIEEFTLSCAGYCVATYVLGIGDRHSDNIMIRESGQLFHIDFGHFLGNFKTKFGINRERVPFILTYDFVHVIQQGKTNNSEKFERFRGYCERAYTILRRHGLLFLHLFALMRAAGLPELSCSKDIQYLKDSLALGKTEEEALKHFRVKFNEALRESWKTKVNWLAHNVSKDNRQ", "sequence (P27986 whole entry partner)": "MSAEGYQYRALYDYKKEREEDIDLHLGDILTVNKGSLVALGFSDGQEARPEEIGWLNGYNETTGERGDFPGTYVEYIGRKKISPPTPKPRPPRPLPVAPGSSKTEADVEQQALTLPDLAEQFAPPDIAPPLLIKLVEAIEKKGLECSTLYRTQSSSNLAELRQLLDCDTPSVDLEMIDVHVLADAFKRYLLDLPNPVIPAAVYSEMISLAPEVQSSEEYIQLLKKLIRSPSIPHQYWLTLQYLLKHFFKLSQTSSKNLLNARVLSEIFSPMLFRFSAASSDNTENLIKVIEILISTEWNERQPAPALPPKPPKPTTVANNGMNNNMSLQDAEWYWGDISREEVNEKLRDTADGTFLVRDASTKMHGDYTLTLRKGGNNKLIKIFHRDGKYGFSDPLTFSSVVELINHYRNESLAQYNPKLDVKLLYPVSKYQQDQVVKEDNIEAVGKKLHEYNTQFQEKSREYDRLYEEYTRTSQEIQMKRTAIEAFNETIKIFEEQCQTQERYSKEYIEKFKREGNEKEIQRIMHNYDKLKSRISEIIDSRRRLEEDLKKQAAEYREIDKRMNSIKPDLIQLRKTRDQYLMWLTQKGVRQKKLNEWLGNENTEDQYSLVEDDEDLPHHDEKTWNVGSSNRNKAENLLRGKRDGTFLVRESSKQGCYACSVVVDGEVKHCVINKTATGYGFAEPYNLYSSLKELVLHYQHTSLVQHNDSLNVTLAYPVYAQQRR", "experiment": "PI3Kδ scintillation proximity assay", "type": "biochemical", "conditions": "scintillation proximity assay, recombinant human PI3Kδ", "from_the_text": "Example C. PI3Kδ Scintillation Proximity Assay\nas §1, with “PI3Kδ (p1106/p85a)” for “PI3Kγ (p110γ)”, “Eurofins (St Charles, MO).” for “Life technology (Grand Island, NY).”\nas §2, with “25 μL.” for “25 L.”, “The PI3Kδ” for “The PI3Kγ”, “[γ-^33P]ATP, 3.4” for “[γ-^33P]ATP, 13”, “nM PI3Kδ.” for “nM PI3Kγ.”, “Topcount (PerkinElmer).” for “Topcount (Perkin-Elmer).”\nas §3"}}, "note": "Where a name gives a salt, the structure may show the parent alone.", "data": [{"smiles": "Cc1ccc(C(O)(C(N)=O)C(F)F)cc1-c1cnc(N)c(C(=O)NC2CCOCC2)n1", "note": "(stereo not drawn) [Example 36, 3-amino-6-(5-(1-amino-3,3-difluoro-2-hydroxy-1-oxopropan-2-yl)-2-methylphenyl)-N-(tetrahydro-2H-pyran-4-yl)pyrazine-2-carboxamide]", "values": [{"measurement": "IC50", "setting": "[1]; Table A1", "value": "< 100", "unit": "nM"}, {"measurement": "IC50", "setting": "[2]; Table A1", "value": "< 100", "unit": "nM"}]}, {"smiles": "Cc1ccc(C(O)(C(N)=O)C(F)F)cc1-c1cnc(N)c(C(=O)NCCC2CCOC2)n1", "note": "(stereo not drawn) [Example 37, 3-amino-6-(5-(1-amino-3,3-difluoro-2-hydroxy-1-oxopropan-2-yl)-2-methylphenyl)-N-(2-(tetrahydrofuran-3-yl)ethyl)pyrazine-2-carboxamide]", "values": [{"measurement": "IC50", "setting": "[1]; Table A1", "value": "< 100", "unit": "nM"}, {"measurement": "IC50", "setting": "[2]; Table A1", "value": "< 100", "unit": "nM"}]}, {"smiles": "Cc1ccc(C(O)(C(N)=O)C(F)(F)F)cc1-c1cnc(N)c(C(=O)NCC(F)(F)F)n1", "note": "(stereo not drawn) [Example 38, 3-Amino-6-(5-(3-amino-1,1,1-trifluoro-2-hydroxy-3-oxopropan-2-yl)-2-methylphenyl)-N-(2,2,2-trifluoroethyl)pyrazine-2-carboxamide trifluoroacetate]", "values": [{"measurement": "IC50", "setting": "[1]; Table A1", "value": "< 100", "unit": "nM"}, {"measurement": "IC50", "setting": "[2]; Table A1", "value": "< 100", "unit": "nM"}]}, {"smiles": "Cc1ccc(C(O)(CNC(=O)C(C)(C)O)C(F)(F)F)cc1-c1cnc(N)c(C(=O)NC(C)C)n1", "note": "(stereo not drawn) [Example 41, 3-Amino-N-isopropyl-6-(2-methyl-5-(1,1,1-trifluoro-2-hydroxy-3-(2-hydroxy-2-methylpropanamido)propan-2-yl)phenyl)pyrazine-2-carboxamide trifluoroacetate]", "values": [{"measurement": "IC50", "setting": "[1]; Table A1", "value": "< 100", "unit": "nM"}, {"measurement": "IC50", "setting": "[2]; Table A1", "value": "100 to 500", "unit": "nM"}]}, {"smiles": "C/C=C\\c1nc(-c2cc(C(O)(C(N)=O)C(F)(F)F)ccc2C)cnc1N", "note": "(stereo not drawn) [Example 44, (Z)-2-(3-(5-amino-6-(prop-1-en-1-yl)pyrazin-2-yl)-4-methylphenyl)-3,3,3-trifluoro-2-hydroxypropanamide]", "values": [{"measurement": "IC50", "setting": "[1]; Table A2", "value": "< 100", "unit": "nM"}, {"measurement": "IC50", "setting": "[2]; Table A2", "value": "100 to 500", "unit": "nM"}]}, {"smiles": "Cc1ccc(C(O)(C(N)=O)C(F)(F)F)cc1-c1cnc(N)c(C(F)(F)F)n1", "note": "(stereo not drawn) [Example 46, 2-(3-(5-Amino-6-(trifluoromethyl)pyrazin-2-yl)-4-methylphenyl)-3,3,3-trifluoro-2-hydroxypropanamide trifluoroacetate]", "values": [{"measurement": "IC50", "setting": "[1]; Table A2", "value": "< 100", "unit": "nM"}, {"measurement": "IC50", "setting": "[2]; Table A2", "value": "100 to 500", "unit": "nM"}]}, {"smiles": "COCC#Cc1nc(-c2cc(C(O)(C(N)=O)C(F)(F)F)ccc2C)cnc1N", "note": "(stereo not drawn) [Example 47, 2-(3-(5-amino-6-(3-methoxyprop-1-ynyl)pyrazin-2-yl)-4-methylphenyl)-3,3,3-trifluoro-2-hydroxypropanamide trifluoroacetate]", "values": [{"measurement": "IC50", "setting": "[1]; Table A2", "value": "< 100", "unit": "nM"}, {"measurement": "IC50", "setting": "[2]; Table A2", "value": "< 100", "unit": "nM"}]}, {"smiles": "Cc1ccc(C(O)(C(N)=O)C(F)(F)F)cc1-c1cnc(N)c(C#CC2CC2)n1", "note": "(stereo not drawn) [Example 48, 2-(3-(5-amino-6-(cyclopropylethynyl)pyrazin-2-yl)-4-methylphenyl)-3,3,3-trifluoro-2-hydroxypropanamide]", "values": [{"measurement": "IC50", "setting": "[1]; Table A2", "value": "< 100", "unit": "nM"}, {"measurement": "IC50", "setting": "[2]; Table A2", "value": "< 100", "unit": "nM"}]}, {"smiles": "Cc1ccc(C(O)(C(N)=O)C(F)(F)F)cc1-c1cnc(N)c(C#CC(C)(C)O)n1", "note": "(stereo not drawn) [Example 50, 2-(3-(5-amino-6-(3-hydroxy-3-methylbut-1-ynyl)pyrazin-2-yl)-4-methylphenyl)-3,3,3-trifluoro-2-hydroxypropanamide]", "values": [{"measurement": "IC50", "setting": "[1]; Table A2", "value": "< 100", "unit": "nM"}, {"measurement": "IC50", "setting": "[2]; Table A2", "value": "< 100", "unit": "nM"}]}, {"smiles": "Cc1ccc(C(O)(C(N)=O)C(F)(F)F)cc1-c1cnc(N)c(C#CCC(C)O)n1", "note": "(stereo not drawn) [Example 51, 2-(3-(5-amino-6-(4-hydroxypent-1-ynyl)pyrazin-2-yl)-4-methylphenyl)-3,3,3-trifluoro-2-hydroxypropanamide]", "values": [{"measurement": "IC50", "setting": "[1]; Table A2", "value": "< 100", "unit": "nM"}, {"measurement": "IC50", "setting": "[2]; Table A2", "value": "< 100", "unit": "nM"}]}, {"smiles": "Cc1ccc(C(O)(C(N)=O)C(F)(F)F)cc1-c1cnc(N)c(C#Cc2cnn(C)c2)n1", "note": "(stereo not drawn) [Example 54, 2-(3-(5-amino-6-((1-methyl-1H-pyrazol-4-yl)ethynyl)pyrazin-2-yl)-4-methylphenyl)-3,3,3-trifluoro-2-hydroxypropanamide]", "values": [{"measurement": "IC50", "setting": "[1]; Table A2", "value": "< 100", "unit": "nM"}, {"measurement": "IC50", "setting": "[2]; Table A2", "value": "< 100", "unit": "nM"}]}, {"smiles": "Cc1ccc(C(O)(C(N)=O)C(F)(F)F)cc1-c1cnc(N)c(C#Cc2ccccn2)n1", "note": "(stereo not drawn) [Example 55, 2-(3-(5-amino-6-(pyridin-2-ylethynyl)pyrazin-2-yl)-4-methylphenyl)-3,3,3-trifluoro-2-hydroxypropanamide]", "values": [{"measurement": "IC50", "setting": "[1]; Table A2", "value": "< 100", "unit": "nM"}, {"measurement": "IC50", "setting": "[2]; Table A2", "value": "< 100", "unit": "nM"}]}, {"smiles": "Cc1ccc(C(O)(C(N)=O)C(F)(F)F)cc1-c1cnc(N)c(C#Cc2cncnc2)n1", "note": "(stereo not drawn) [Example 56, 2-(3-(5-amino-6-(pyrimidin-5-ylethynyl)pyrazin-2-yl)-4-methylphenyl)-3,3,3-trifluoro-2-hydroxypropanamide]", "values": [{"measurement": "IC50", "setting": "[1]; Table A2", "value": "< 100", "unit": "nM"}, {"measurement": "IC50", "setting": "[2]; Table A2", "value": "< 100", "unit": "nM"}]}, {"smiles": "Cc1ccc(C(O)(C(N)=O)C(F)(F)F)cc1-c1cnc(N)c(C#Cc2cnccn2)n1", "note": "(stereo not drawn) [Example 57, 2-(3-(5-amino-6-(pyrazin-2-ylethynyl)pyrazin-2-yl)-4-methylphenyl)-3,3,3-trifluoro-2-hydroxypropanamide]", "values": [{"measurement": "IC50", "setting": "[1]; Table A2", "value": "< 100", "unit": "nM"}, {"measurement": "IC50", "setting": "[2]; Table A2", "value": "< 100", "unit": "nM"}]}, {"smiles": "Cc1ccc(C(O)(C(N)=O)C(F)(F)F)cc1-c1cnc(N)c(C#Cc2ccc(C#N)cc2)n1", "note": "(stereo not drawn) [Example 58, 2-(3-(5-amino-6-((4-cyanophenyl)ethynyl)pyrazin-2-yl)-4-methylphenyl)-3,3,3-trifluoro-2-hydroxypropanamide]", "values": [{"measurement": "IC50", "setting": "[1]; Table A2", "value": "< 100", "unit": "nM"}, {"measurement": "IC50", "setting": "[2]; Table A2", "value": "< 100", "unit": "nM"}]}, {"smiles": "Cc1ccc(C(O)(C(N)=O)C(F)(F)F)cc1-c1cnc(N)c(C#Cc2ccc(CC#N)cc2)n1", "note": "(stereo not drawn) [Example 59, 2-(3-(5-amino-6-((4-(cyanomethyl)phenyl)ethynyl)pyrazin-2-yl)-4-methylphenyl)-3,3,3-trifluoro-2-hydroxypropanamide]", "values": [{"measurement": "IC50", "setting": "[1]; Table A2", "value": "< 100", "unit": "nM"}, {"measurement": "IC50", "setting": "[2]; Table A2", "value": "< 100", "unit": "nM"}]}, {"smiles": "COc1cc(C#Cc2nc(-c3cc(C(O)(C(N)=O)C(F)(F)F)ccc3C)cnc2N)cc(OC)c1", "note": "(stereo not drawn) [Example 60, 2-(3-(5-amino-6-((3,5-dimethoxyphenyl)ethynyl)pyrazin-2-yl)-4-methylphenyl)-3,3,3-trifluoro-2-hydroxypropanamide]", "values": [{"measurement": "IC50", "setting": "[1]; Table A2", "value": "< 100", "unit": "nM"}, {"measurement": "IC50", "setting": "[2]; Table A2", "value": "< 100", "unit": "nM"}]}, {"smiles": "Cc1ccc(C(O)(C(N)=O)C(F)(F)F)cc1-c1cnc(N)c(C#Cc2cccc(F)c2)n1", "note": "(stereo not drawn) [Example 61, 2-(3-(5-amino-6-((3-fluorophenyl)ethynyl)pyrazin-2-yl)-4-methylphenyl)-3,3,3-trifluoro-2-hydroxypropanamide]", "values": [{"measurement": "IC50", "setting": "[1]; Table A2", "value": "< 100", "unit": "nM"}, {"measurement": "IC50", "setting": "[2]; Table A2", "value": "< 100", "unit": "nM"}]}, {"smiles": "Cc1ccc(C(O)(C(N)=O)C(F)(F)F)cc1-c1cnc(N)c(C#CC(C)(O)C(C)C)n1", "note": "(stereo not drawn) [Example 62, 2-(3-(5-amino-6-(3-hydroxy-3,4-dimethylpent-1-ynyl)pyrazin-2-yl)-4-methylphenyl)-3,3,3-trifluoro-2-hydroxypropanamide]", "values": [{"measurement": "IC50", "setting": "[1]; Table A2", "value": "< 100", "unit": "nM"}, {"measurement": "IC50", "setting": "[2]; Table A2", "value": "< 100", "unit": "nM"}]}, {"smiles": "Cc1ccc(C(O)(C(N)=O)C(F)(F)F)cc1-c1cnc(N)c(C#CC2CCOCC2)n1", "note": "(stereo not drawn) [Example 63, 2-(3-(5-amino-6-((tetrahydro-2H-pyran-4-yl)ethynyl)pyrazin-2-yl)-4-methylphenyl)-3,3,3-trifluoro-2-hydroxypropanamide]", "values": [{"measurement": "IC50", "setting": "[1]; Table A2", "value": "< 100", "unit": "nM"}, {"measurement": "IC50", "setting": "[2]; Table A2", "value": "< 100", "unit": "nM"}]}, {"smiles": "Cc1ccc(C(O)(C(N)=O)C(F)(F)F)cc1-c1cnc(N)c(C#CC2(C)CCOCC2)n1", "note": "(stereo not drawn) [Example 64, 2-(3-(5-amino-6-((4-methyltetrahydro-2H-pyran-4-yl)ethynyl)pyrazin-2-yl)-4-methylphenyl)-3,3,3-trifluoro-2-hydroxypropanamide]", "values": [{"measurement": "IC50", "setting": "[1]; Table A2", "value": "< 100", "unit": "nM"}, {"measurement": "IC50", "setting": "[2]; Table A2", "value": "< 100", "unit": "nM"}]}]}
